From the supplement of paper PMC4862054

What was measured:
Details in all cases: 72 h
MDA-MB-231 [1] = system: MDA-MB-231
Description: (§1)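 Drug sensitivity and resistance testing (DSRT) of breast cancer cell lines in 384-well plates, 5 concentrations in 10-fold dilutions over a compound-specific 10,000-fold range. After 72 h, cytotoxicity was read by CellTox Green fluorescence and viability by CellTiter-Glo luminescence (multiplexed), normalised to DMSO and benzethonium chloride controls. EC50 is the inflection point of the fitted dose-response curve (bottom asymptote free, so it can be relative for partial curves) and is censored at the highest tested concentration. Rows with DSS 0 (no meaningful response) were excluded.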

MDA-MB-468 [2] = system: MDA-MB-468
Description: as §1

Hs578T [3] = system: Hs578T
Description: as §1

HCC1937 [4] = system: HCC1937
Summary of the method: (§2)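 A 20 µl suspension of breast cancer cells was placed in 384-well plates that already contained compound at 5 concentrations in 10-fold steps across a compound-specific 10,000-fold range, and the plates were left for 72 h. CellTox Green fluorescence at 485/520 nm gave cell death, and CellTiter-Glo luminescence, read after 10 min at room temperature, gave viability. Each plate was normalised to 0.1 % DMSO and a positive kill control. EC50 was fitted from the curves and censored at the top concentration.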

MDA-MB-231 [5] = system: MDA-MB-231; remark: listed apart in the source
Summary of the method: as §2

BT-474 [6] = system: BT-474
Summary of the method: as §2

MDA-MB-436 [7] = system: MDA-MB-436
Summary of the method: as §2

SK-BR-3 [8] = system: SK-BR-3
Summary of the method: as §2

Hs578T [9] = system: Hs578T; remark: listed apart in the source
Summary of the method: as §2

CAL-51 [10] = system: CAL-51
Summary of the method: as §2

CAL-85-1 [11] = system: CAL-85-1
Summary of the method: as §2

CAL-85-1 [12] = system: CAL-85-1; remark: listed apart in the source
Summary of the method: (§3)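 For viability, cells received 2.5 µl CellTiter-Blue for 2 h at 37 °C and fluorescence was read at 560/590 nm. Before this, breast cancer cell lines in 20 µl suspension had been incubated for 72 h on 384-well plates pre-loaded with compound dissolved in 5 µl medium. EC50 was obtained from a percent-inhibition dose-response fit censored at the highest concentration, after normalisation of each plate to vehicle and a positive kill control; rows with a zero drug sensitivity score were discarded.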

HCC1143 [13] = system: HCC1143
Summary of the method: as §3

SK-BR-3 [14] = system: SK-BR-3; remark: listed apart in the source
Summary of the method: as §3

CAL-120 = system: CAL-120
Summary of the method: as §3

MDA-MB-436 [15] = system: MDA-MB-436; remark: listed apart in the source
Description: as §1

MFM-223 [16] = system: MFM-223
Description: as §1

CAL-148 [17] = system: CAL-148
Description: as §1

CAL-51 [18] = system: CAL-51; remark: listed apart in the source
Description: as §1

CAL-85-1 [19] = system: CAL-85-1; remark: listed apart in the source
Description: as §1

HDQ-P1 = system: HDQ-P1
Summary of the method: as §2

HCC1143 [20] = system: HCC1143; remark: listed apart in the source
Summary of the method: as §2

HCC1599 [21] = system: HCC1599
Summary of the method: as §2

MDA-MB-453 [22] = system: MDA-MB-453
Summary of the method: as §2

MFM-223 [23] = system: MFM-223; remark: listed apart in the source
Summary of the method: as §2

DU-4475 [24] = system: DU-4475
Summary of the method: as §2

CAL-148 [25] = system: CAL-148; remark: listed apart in the source
Summary of the method: as §2

MDA-MB-468 [26] = system: MDA-MB-468; remark: listed apart in the source
Summary of the method: as §2

BT-549 = system: BT-549
Summary of the method: as §2

MDA-MB-453 [27] = system: MDA-MB-453; remark: listed apart in the source
Summary of the method: as §3

DU-4475 [28] = system: DU-4475; remark: listed apart in the source
Summary of the method: as §3

CAL-148 [29] = system: CAL-148; remark: listed apart in the source
Summary of the method: as §3

CAL-51 [30] = system: CAL-51; remark: listed apart in the source
Summary of the method: as §3

HCC1937 [31] = system: HCC1937; remark: listed apart in the source
Summary of the method: as §3

MDA-MB-231 [32] = system: MDA-MB-231; remark: listed apart in the source
Summary of the method: as §3

HCC1599 [33] = system: HCC1599; remark: listed apart in the source
Summary of the method: as §3

BT-474 [34] = system: BT-474; remark: listed apart in the source
Summary of the method: as §3

MFM-223 [35] = system: MFM-223; remark: listed apart in the source
Summary of the method: as §3

MDA-MB-468 [36] = system: MDA-MB-468; remark: listed apart in the source
Summary of the method: as §3

Hs578T [37] = system: Hs578T; remark: listed apart in the source
Summary of the method: as §3

| Structure (SMILES) | EC50, CellTox Green (MDA-MB-231 [1]) [nM] | EC50, CellTox Green (MDA-MB-468 [2]) [nM] | EC50, CellTox Green (Hs578T [3]) [nM] | EC50, CellTiter-Glo (HCC1937 [4]) [nM] | EC50, CellTiter-Glo (MDA-MB-231 [5]) [nM] | EC50, CellTiter-Glo (BT-474 [6]) [nM] | EC50, CellTiter-Glo (MDA-MB-436 [7]) [nM] | EC50, CellTiter-Glo (SK-BR-3 [8]) [nM] | EC50, CellTiter-Glo (Hs578T [9]) [nM] | EC50, CellTiter-Glo (CAL-51 [10]) [nM] | EC50, CellTiter-Glo (CAL-85-1 [11]) [nM] | EC50, CellTiter-Blue viability (CAL-85-1 [12]) [nM] | EC50, CellTiter-Blue viability (HCC1143 [13]) [nM] | EC50, CellTiter-Blue viability (SK-BR-3 [14]) [nM] | EC50, CellTiter-Blue viability (CAL-120) [nM] | EC50, CellTox Green (MDA-MB-436 [15]) [nM] | EC50, CellTox Green (MFM-223 [16]) [nM] | EC50, CellTox Green (CAL-148 [17]) [nM] | EC50, CellTox Green (CAL-51 [18]) [nM] | EC50, CellTox Green (CAL-85-1 [19]) [nM] | EC50, CellTiter-Glo (HDQ-P1) [nM] | EC50, CellTiter-Glo (HCC1143 [20]) [nM] | EC50, CellTiter-Glo (HCC1599 [21]) [nM] | EC50, CellTiter-Glo (MDA-MB-453 [22]) [nM] | EC50, CellTiter-Glo (MFM-223 [23]) [nM] | EC50, CellTiter-Glo (DU-4475 [24]) [nM] | EC50, CellTiter-Glo (CAL-148 [25]) [nM] | EC50, CellTiter-Glo (MDA-MB-468 [26]) [nM] | EC50, CellTiter-Glo (BT-549) [nM] | EC50, CellTiter-Blue viability (MDA-MB-453 [27]) [nM] | EC50, CellTiter-Blue viability (DU-4475 [28]) [nM] | EC50, CellTiter-Blue viability (CAL-148 [29]) [nM] | EC50, CellTiter-Blue viability (CAL-51 [30]) [nM] | EC50, CellTiter-Blue viability (HCC1937 [31]) [nM] | EC50, CellTiter-Blue viability (MDA-MB-231 [32]) [nM] | EC50, CellTiter-Blue viability (HCC1599 [33]) [nM] | EC50, CellTiter-Blue viability (BT-474 [34]) [nM] | EC50, CellTiter-Blue viability (MFM-223 [35]) [nM] | EC50, CellTiter-Blue viability (MDA-MB-468 [36]) [nM] | EC50, CellTiter-Blue viability (Hs578T [37]) [nM] |
| --- | --- | --- | --- | --- | --- | --- | --- | --- | --- | --- | --- | --- | --- | --- | --- | --- | --- | --- | --- | --- | --- | --- | --- | --- | --- | --- | --- | --- | --- | --- | --- | --- | --- | --- | --- | --- | --- | --- | --- | --- |
| Nc1nc2[nH]cc(CCc3ccc(C(=O)N[C@@H](CCC(=O)O)C(=O)O)cc3)c2c(=O)[nH]1 [Pemetrexed] | 2830 | 8620 | 9350 | 64.1 | 652 | 408 | 30.3 | 23.1 | 47.4 | 2.23 | 41.1 | 878 | > 10000 | 116 | > 10000 |  |  |  |  |  |  |  |  |  |  |  |  |  |  |  |  |  |  |  |  |  |  |  |  |  |
| Nc1ccccc1NC(=O)c1ccc(CNC(=O)OCc2cccnc2)cc1 [Entinostat] | 7140 | 1230 |  |  | 7170 | 7640 | 1330 | 2160 | 1550 | 356 | 8310 | 2700 | 5100 | 777 | 1890 | 6220 | 1440 | 4160 | 1140 | 4310 | 2380 | 4760 | 4840 | 2160 | 4850 | 3830 | 2560 | 4170 | 925 | 2860 | 5700 | 2990 | 7860 | 1170 | 2880 | 3680 | 3520 | 2710 | 1520 | 5880 |
